Experimental data published in US4399067A.
Values after ≈ are worked out from the molar mass of the structure shown.

Tests used:
[1] = tested on: Bacillus subtilis ATCC 6633; test: Agar-plate disc-diffusion test; assay type: cell-based; conditions: compound at 1 mg/ml, 7-mm disc, 24-48 hours at 25-37° C.
Text: | ^b Grown on minimal nutrient agar

[2] = tested on: Staphylococcus aureus X1.1; assay type: cell-based; conditions: agar-dilution
Text: (§1) The results of the antibacterial testing of a representative compound of formula 1, using the standard agar-dilution test, are summarized in Table II.

[3] = tested on: Staphylococcus epidermidis EPI1; assay type: cell-based; conditions: agar-dilution
Text: as §1

[4] = tested on: Staphylococcus epidermidis EPI2; assay type: cell-based; conditions: agar-dilution
Text: as §1

[5] = tested on: Streptococcus Group 9960; assay type: cell-based; conditions: agar-dilution
Text: as §1

[6] = tested on: Streptococcus Group D X66; assay type: cell-based; conditions: agar-dilution
Text: as §1

[7] = tested on: Streptococcus pyogenes C203; assay type: cell-based; conditions: agar-dilution
Text: as §1

[8] = tested on: Staphylococcus aureus V41; assay type: cell-based; conditions: agar-dilution; penicillin-resistant strain
Text: as §1
^b Pencillinresistant strain

[9] = tested on: Staphylococcus aureus X400; assay type: cell-based; conditions: agar-dilution; methicillin-resistant strain
Text: as §1
^c Methicillinresistant-strain

[10] = tested on: Staphylococcus aureus; test: In vivo activity against experimental bacterial infection in mice; conditions: two doses, dose protecting fifty percent of the test animals
[11] = tested on: Streptococcus pyogenes; test: as above; conditions: two doses, dose protecting fifty percent of the test animals
[12] = Acute toxicity, intravenous, mice; conditions: mouse, in vivo, administered intravenously to mice

| SMILES | Size of Zone of Inhibition, B. subtilis ATCC 6633 grown on minimal nutrient agar [1] | MIC, Staphylococcus aureus X1.1 [2] | MIC, Staphylococcus epidermidis EPI1 [3] | MIC, Staphylococcus epidermidis EPI2 [4] | MIC, Streptococcus Group 9960 [5] | MIC, Streptococcus Group D X66 [6] | MIC, Streptococcus pyogenes C203 [7] | MIC, Staphylococcus aureus V41 [8] | MIC, Staphylococcus aureus X400 [9] | ED50, Staphylococcus aureus, Subcutaneous [10] | ED50, Streptococcus pyogenes, Oral ([11]; oral) | ED50, Streptococcus pyogenes, Subcutaneous ([11]; subcutaneous) | LD50 [12] |
| --- | --- | --- | --- | --- | --- | --- | --- | --- | --- | --- | --- | --- | --- |
| CCCCCCCCCCCCOc1ccc(C(=O)N[C@@H](Cc2c[nH]c3ccccc23)C(=O)N[C@@H](CC(N)=O)C(=O)N[C@@H](CC(=O)O)C(=O)N[C@@H]2C(=O)NCC(=O)N[C@@H](CCCN)C(=O)N[C@@H](CC(=O)O)C(=O)N[C@H](C)C(=O)N[C@@H](CC(=O)O)C(=O)NCC(=O)N[C@H](CO)C(=O)N[C@@H]([C@H](C)CC(=O)O)C(=O)N[C@@H](CC(=O)c3ccccc3N)C(=O)O[C@@H]2C)cc1 [Example 2, NTrp -p-(n-dodecyloxy)benzoyl-A-21978C Nucleus] | 20 mm | 1 µg/mL (≈ 0.57 µM) | 4 µg/mL (≈ 2.28 µM) | 2 µg/mL (≈ 1.14 µM) | 1 µg/mL (≈ 0.57 µM) | 2 µg/mL (≈ 1.14 µM) | 0.25 µg/mL (≈ 0.142 µM) | 1 µg/mL (≈ 0.57 µM) | 2 µg/mL (≈ 1.14 µM) | 3.35 mg/kg × 2 | > 200 mg/kg × 2 | 0.31 mg/kg × 2 | 67.5 mg/kg |
| CCCCCCCCCCCCOc1ccc(C(=O)N[C@@H](Cc2c[nH]c3ccccc23)C(=O)N[C@@H](CC(N)=O)C(=O)N[C@@H](CC(=O)O)C(=O)N[C@@H]2C(=O)NCC(=O)N[C@@H](CCCNC(=O)OC(C)(C)C)C(=O)N[C@@H](CC(=O)O)C(=O)N[C@H](C)C(=O)N[C@@H](CC(=O)O)C(=O)NCC(=O)N[C@H](CO)C(=O)N[C@@H]([C@H](C)CC(=O)O)C(=O)N[C@@H](CC(=O)c3ccccc3N)C(=O)O[C@@H]2C)cc1 [Example 1] | 22 mm | – | – | – | – | – | – | – | – | – | – | – | – |
